Source: patent US9776997B2, “3-aryl-substituted imidazo[1,2-A]pyridines and their use” (Bayer Pharma Aktiengesellschaft, priority 2013, dated 2017)
Structures can show the parent of a compound that is named as a salt.

Biological target: T1, recombinant guanylate cyclase reporter cell line (Rattus norvegicus, UniProt P19686+P20595)
T1 construct: expressed in transfected cells; host or cells: recombinant reporter cell line
T1 sequence (P19686 1-690): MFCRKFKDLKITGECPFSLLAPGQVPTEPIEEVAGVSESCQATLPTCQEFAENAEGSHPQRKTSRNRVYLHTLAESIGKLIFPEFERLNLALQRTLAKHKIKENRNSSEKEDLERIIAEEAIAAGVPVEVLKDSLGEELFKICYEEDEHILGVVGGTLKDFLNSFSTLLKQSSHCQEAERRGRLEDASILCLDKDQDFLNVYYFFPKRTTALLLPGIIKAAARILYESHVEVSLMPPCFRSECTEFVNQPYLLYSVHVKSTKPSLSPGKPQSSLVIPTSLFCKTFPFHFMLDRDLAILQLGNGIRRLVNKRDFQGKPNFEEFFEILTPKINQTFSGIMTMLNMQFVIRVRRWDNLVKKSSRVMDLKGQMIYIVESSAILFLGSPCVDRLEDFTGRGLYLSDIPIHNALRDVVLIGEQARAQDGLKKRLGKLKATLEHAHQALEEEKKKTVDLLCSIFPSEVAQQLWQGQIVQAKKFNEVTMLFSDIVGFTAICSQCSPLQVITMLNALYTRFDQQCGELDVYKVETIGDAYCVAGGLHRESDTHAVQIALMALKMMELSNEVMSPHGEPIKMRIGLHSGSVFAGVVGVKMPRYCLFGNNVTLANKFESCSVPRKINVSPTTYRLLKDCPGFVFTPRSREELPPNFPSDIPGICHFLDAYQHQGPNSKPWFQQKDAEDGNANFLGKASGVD
T1 sequence (P20595 1-619): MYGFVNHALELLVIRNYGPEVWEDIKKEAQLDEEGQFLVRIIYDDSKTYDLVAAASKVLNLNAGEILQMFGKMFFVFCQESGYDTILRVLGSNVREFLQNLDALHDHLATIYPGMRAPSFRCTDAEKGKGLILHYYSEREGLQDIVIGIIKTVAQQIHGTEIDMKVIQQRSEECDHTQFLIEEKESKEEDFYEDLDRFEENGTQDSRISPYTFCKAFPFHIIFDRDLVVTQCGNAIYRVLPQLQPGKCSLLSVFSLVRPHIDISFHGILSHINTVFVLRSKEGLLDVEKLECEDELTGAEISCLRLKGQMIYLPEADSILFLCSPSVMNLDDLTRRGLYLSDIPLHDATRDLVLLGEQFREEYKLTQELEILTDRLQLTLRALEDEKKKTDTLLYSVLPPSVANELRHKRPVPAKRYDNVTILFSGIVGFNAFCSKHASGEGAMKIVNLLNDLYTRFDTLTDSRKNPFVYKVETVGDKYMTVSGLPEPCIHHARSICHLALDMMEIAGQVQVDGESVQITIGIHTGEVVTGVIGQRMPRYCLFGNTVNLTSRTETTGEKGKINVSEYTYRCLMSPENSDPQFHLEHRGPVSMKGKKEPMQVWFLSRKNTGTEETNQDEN
Assay: Effect on a recombinant guanylate cyclase reporter cell line
Format: cell-based
Conditions: MEC = minimum effective concentration; in some cases mean values for individual determinations
Description: B-2. Effect on a Recombinant Guanylate Cyclase Reporter Cell Line
The cellular effect of the inventive compounds is determined using a recombinant guanylate cyclase reporter cell line, as described in F. Wunder et al., Anal. Biochem. 339, 104-112 (2005).
Representative MEC values (MEC=minimum effective concentration) for the inventive compounds are shown in the table below (in some cases as mean values for individual determinations): […]

Row | SMILES | MEC [µM]
1 | CCOC(=O)c1ncc(-c2c(C)nc3c(OCc4c(F)cccc4F)cc(C)cn23)s1 [Example 138, Ethyl 5-{8-[(2,6-difluorobenzyl)oxy]-2,6-dimethylimidazo[1,2-a]pyridin-3-yl}-1,3-thiazole-2-carboxylate] | 3.0
2 | Cc1nc2c(OCc3c(F)cccc3F)cccn2c1-c1csc2ccccc12 [Example 35, 3-(1-benzothiophen-3-yl)-8-[(2,6-difluorobenzyl)oxy]-2-methylimidazo[1,2-a]pyridine] | 3.0
3 | Cc1nc2c(OCc3c(F)cccc3F)cccn2c1-c1ccncc1 [Example 29, 8-[(2,6-difluorobenzyl)oxy]-2-methyl-3-(pyridin-4-yl)imidazo[1,2-a]pyridine] | 1.0
4 | Cc1nc2c(OCc3c(F)cccc3F)cccn2c1-c1ccc(CN2CCOCC2)c(F)c1 [Example 39, 8-[(2,6-difluorobenzyl)oxy]-3-[3-fluoro-4-(morpholin-4-ylmethyl)phenyl]-2-methylimidazo[1,2-a]pyridine] | 3.0
5 | Cc1cc(OCc2c(F)cccc2F)c2nc(C)c(-c3nccc(C(=O)NC4CC4)n3)n2c1 [Example 81, N-Cyclopropyl-2-{8-[(2,6-difluorobenzyl)oxy]-2,6-dimethylimidazo[1,2-a]pyridin-3-yl}pyrimidine-4-carboxamide trifluoroacetate] | 3.0
6 | Cc1cc(OCc2c(F)cccc2F)c2nc(C)c(-c3cn[nH]n3)n2c1 [Example 82, 8-[(2,6-difluorobenzyl)oxy]-2,6-dimethyl-3-(2H-1,2,3-triazol-4-yl)imidazo[1,2-a]pyridine] | 0.1
7 | Cc1cc(OCc2c(F)cccc2F)c2nc(C)c(-c3cnn(CCN4CCC(F)(F)CC4)c3)n2c1 [Example 92, 8-[(2,6-Difluorobenzyl)oxy]-3-{1-[2-(4,4-difluoropiperidin-1-yl)ethyl]-1H-pyrazol-4-yl}-2,6-dimethylimidazo[1,2-a]pyridine] | 0.03
8 | COC(=O)CC(C)n1cc(-c2c(C)nc3c(OCc4c(F)cccc4F)cc(C)cn23)cn1 (stereo not shown) [Example 105] | 0.01
9 | Cc1nc2c(OCc3c(F)cccc3F)cccn2c1-c1cn[nH]n1 [Example 134, 8-[(2,6-Difluorobenzyl)oxy]-2-methyl-3-(2H-1,2,3-triazol-4-yl)imidazo[1,2-a]pyridine] | 1.0
10 | Cc1cc(OCc2c(F)cccc2F)c2nc(C)c(-c3cnn(CCCC#N)c3)n2c1 [Example 100, 4-(4-{8-[(2,6-Difluorobenzyl)oxy]-2,6-dimethylimidazo[1,2-a]pyridin-3-yl}-1H-pyrazol-1-yl)butanonitrile] | 0.03
11 | Cc1cc(OCc2c(F)cccc2F)c2nc(C)c(-c3cnn(CC(=O)O)c3)n2c1 [Example 108, (4-{8-[(2,6-difluorobenzyl)oxy]-2,6-dimethylimidazo[1,2-a]pyridin-3-yl}-1H-pyrazol-1-yl)acetic acid] | 0.3
12 | C=Cc1ccc(-c2c(C)nc3c(OCc4c(F)cccc4F)cccn23)cc1 [Example 32, 8-[(2,6-difluorobenzyl)oxy]-2-methyl-3-(4-vinylphenyl)imidazo[1,2-a]pyridine] | 3.0
13 | Cc1nc2c(OCc3c(F)cccc3F)cccn2c1-c1ccc(C(N)=O)cc1 [Example 40, 4-{8-[(2,6-difluorobenzyl)oxy]-2-methylimidazo[1,2-a]pyridin-3-yl}benzamide] | 3.0
14 | CCCCc1coc(-c2c(C)nc3c(OCc4c(F)cccc4F)cc(Cl)cn23)n1 [Example 61, 3-(4-Butyl-1,3-oxazol-2-yl)-6-chloro-8-[(2,6-difluorobenzyl)oxy]-2-methylimidazo[1,2-a]pyridine trifluoroacetate] | 3.0
15 | Cc1nc2c(OCc3c(F)cccc3F)cccn2c1-c1ccc2[nH]ncc2c1 [Example 54] | 1.0
16 | COC(=O)CCn1cc(-c2c(C)nc3c(OCc4c(F)cccc4F)cc(C)cn23)cn1 [Example 102, Methyl 3-(4-{8-[(2,6-difluorobenzyl)oxy]-2,6-dimethylimidazo[1,2-a]pyridin-3-yl}-1H-pyrazol-1-yl)propanoate] | 0.1

Row | SMILES | MEC [µM]
17 | Cc1nc2c(OCc3c(F)cccc3F)cccn2c1-c1cnn(CC(C)(C)N)c1 [Example 90, 1-(4-{8-[(2,6-Difluorobenzyl)oxy]-2-methylimidazo[1,2-a]pyridin-3-yl}-1H-pyrazol-1-yl)-2-methylpropan-2-amine] | 0.3
18 | Cc1nc2c(OCc3c(F)cccc3F)cccn2c1-c1cccc(C(N)=O)c1 [Example 7, 3-{8-[(2,6-difluorobenzyl)oxy]-2-methylimidazo[1,2-a]pyridin-3-yl}benzamide] | 0.1
19 | Cc1nc2c(OCc3c(F)cccc3F)cccn2c1-c1cccc(Br)c1 [Example 13, 3-(3-bromophenyl)-8-[(2,6-difluorobenzyl)oxy]-2-methylimidazo[1,2-a]pyridine] | 0.3
20 | Cc1cc(OCc2c(F)cccc2F)c2nc(C)c(-c3cnn(CC(C)(C)N)n3)n2c1 [Example 83, 1-(4-{8-[(2,6-Difluorobenzyl)oxy]-2,6-dimethylimidazo[1,2-a]pyridin-3-yl}-2H-1,2,3-triazol-2-yl)-2-methylpropan-2-amine] | 0.3
21 | Cc1cc(OCc2c(F)cccc2F)c2nc(C)c(-c3nnc(CC(C)(C)N)o3)n2c1 [Example 130, 1-(5-{8-[(2,6-Difluorobenzyl)oxy]-2,6-dimethylimidazo[1,2-a]pyridin-3-yl}-1,3,4-oxadiazol-2-yl)-2-methylpropan-2-amine] | 3.0
22 | Cc1nc2c(OCc3c(F)cccc3F)cccn2c1-c1cccc(NS(C)(=O)=O)c1 [Example 48] | 0.2
23 | Cc1nc2c(OCc3c(F)cccc3F)cccn2c1-c1cnn(CCN2CCOCC2)c1 [Example 119] | 0.1
24 | Cc1cc(OCc2c(F)cccc2F)c2nc(C)c(-c3cncc(C(N)=O)c3)n2c1 [Example 77, 5-{8-[(2,6-Difluorobenzyl)oxy]-2,6-dimethylimidazo[1,2-a]pyridin-3-yl}nicotinamide] | 0.1
25 | Cc1nc2c(OCC3CCCCC3)cccn2c1-c1nnc(C2CC2)o1 [Example 74] | 3.0
26 | Cc1nc2c(OCc3c(F)cccc3F)cccn2c1-c1ccc(C#N)cc1 [Example 17, 4-{8-[(2,6-difluorobenzyl)oxy]-2-methylimidazo[1,2-a]pyridin-3-yl}benzonitrile] | 1.0
27 | Cc1nc2c(OCc3c(F)cccc3F)cccn2c1-c1nnc(N)o1 [Example 58, 5-{8-[(2,6-Difluorobenzyl)oxy]-2-methylimidazo[1,2-a]pyridin-3-yl}-1,3,4-oxadiazole-2-amine] | 3.0
28 | COc1ccc(-c2c(C)nc3c(OCc4c(F)cccc4F)cccn23)cc1CN1CCOCC1 [Example 41, 8-[(2,6-difluorobenzyl)oxy]-3-[4-methoxy-3-(morpholin-4-ylmethyl)phenyl]-2-methylimidazo[1,2-a]pyridine] | 3.0
29 | Cc1nc2c(OCc3c(F)cccc3F)cccn2c1-c1ccc(Oc2ccccc2)cc1 [Example 31, 8-[(2,6-difluorobenzyl)oxy]-2-methyl-3-(4-phenoxyphenyl)imidazo[1,2-a]pyridine] | 3.0
30 | Cc1cc(OCc2c(F)cccc2F)c2nc(C)c(-c3cnn(CCN4CCN(C)CC4)c3)n2c1 [Example 94, 8-[(2,6-Difluorobenzyl)oxy]-2,6-dimethyl-3-{1-[2-(4-methylpiperazin-1-yl)ethyl]-1H-pyrazol-4-yl}imidazo[1,2-a]pyridine] | 0.3
31 | Cc1cc(OCc2c(F)cccc2F)c2nc(C)c(-c3ncc(C)o3)n2c1 [Example 137, 8-[(2,6-Difluorobenzyl)oxy]-2,6-dimethyl-3-(5-methyl-1,3-oxazol-2-yl)imidazo[1,2-a]pyridine] | 3.0
